Values of other authors, collected in patent US20230038462A1, “TRANSDERMAL PENETRANT FORMULATIONS CONTAINING CANNABIDIOL” (DYVE BIOSCIENCES, INC., priority 2019, published 2023).

**Q.** For `C=C(C)[C@@H]1CCC(C)=C[C@H]1c1c(O)cc(CCCCC)cc1O` [Cannabidiol], which “side effects of long-term use” value is on record?
**A.** somnolence, decreased appetite, diarrhea, fatigue, malaise, weakness, and sleeping problems
